From article PMC6268609, “Synthesis and Evaluation of New β-Carboline-3-(4-benzylidene)-4H-oxazol-5-one Derivatives as Antitumor Agents” (Molecules, 2012)
pIC50: −log10 of the molar value. Where two headings read alike, the source gives them in different places.

Key:
ovarian (OVCAR-03) [1] = settings: previous work; cited from earlier work
prostate (PC-3) [2] = settings: previous work; cited from earlier work
glioma (U251) = experiment: Cytotoxic assay (sulforhodamine B), glioma; format: cell-based, human; settings: for pIC50: Homo sapiens, U-251, 48 h, sulforhodamine B assay
Procedure: (§1) The synthesized compounds were evaluated in vitro against six human cancer cell lines consisting of glioma (U251), melanoma (UACC-62), breast (MCF-7), prostate (PC-3), ovarian (OVCAR-03) and colon (HT-29). Cell lines were obtained from National Cancer Institute (Frederick, MD, USA). Normal cell line (VERO, renal, green monkey), from the Rio de Janeiro Cell Bank, was also used. Stock cultures were grown in medium containing 5 mL RPMI 1640 (GIBCO BRL) supplemented with 5% fetal bovine serum (FBS, GIBCO), at 37 °C with 5% CO2. Penicillin:streptomycin (1000 μg/L:1000 U/L, 1 mL/L) was added to the experimental cultures. Cells in 96-well plates (100 μL cells well^−1) were exposed to compounds 8–11 in DMSO (concentrations of 0.25, 2.5, 25, and 250 μg·mL^−1) at 37 °C, 5% of CO2 in air for 48 h. […] Afterwards cells were fixed with 50% trichloroacetic acid and cell proliferation determined by spectrophotometric quantification (540 nm) of cellular protein content by using sulforhodamine B assay and doxorubicin as the positive control. Three measurements were obtained: at time zero (To, at the beginning of incubation) and 48 h post-incubation for compound-free (C) and tested (T) cells. Cell proliferation was determined according to the equation 100 × [(T − T0)/C − T0], for T0 < T ≤ C, and 100 × [(T − T0)/T0], for T ≤ T0 and a concentration-response curve for each cell line was plotted using software ORIGIN 8.0® (OriginLab Corporation). Using the concentration–response curve for each cell line, the IC50 values (concentration that produces a 50% reduction in cellular growth when compared to untreated control cells) and IC100 values (concentration that promotes total growth inhibition) were determined through non-linear regression analysis using software ORIGIN 8.0® (OriginLab Corporation). Compounds with IC50 values < 100 μM were considered actives.

prostate (PC-3) [3] = experiment: Cytotoxic assay (sulforhodamine B), prostate; format: cell-based, human; settings: for pIC50: Homo sapiens, 48 h, sulforhodamine B assay
Procedure: as §1

ovarian (OVCAR-03) [4] = experiment: Cytotoxic assay (sulforhodamine B), ovarian; format: cell-based, human; settings: for pIC50: Homo sapiens, 48 h, sulforhodamine B assay
Procedure: as §1

[5] = tested on: Normal cell line (VERO, renal, green monkey); experiment: Cytotoxic assay (sulforhodamine B), normal cell line; format: cell-based; settings: Chlorocebus sabaeus, 48 h
Procedure: as §1

breast (MCF-7) = experiment: Cytotoxic assay (sulforhodamine B), breast; format: cell-based; settings: Homo sapiens, MCF7, 48 h
Procedure: as §1

colon (HT-29) = experiment: Cytotoxic assay (sulforhodamine B), colon; format: cell-based; settings: Homo sapiens, 48 h
Procedure: as §1

melanoma (UACC-62) = experiment: Cytotoxic assay (sulforhodamine B), melanoma; format: cell-based, human; settings: for pIC50: Homo sapiens, UACC-62, 48 h, sulforhodamine B assay
Procedure: as §1

Row | SMILES | pIC50 (ovarian (OVCAR-03) [1]) | pIC50 (prostate (PC-3) [2]) | pIC50 (glioma (U251)) | pIC50 (prostate (PC-3) [3]) | pIC50 (ovarian (OVCAR-03) [4]) | pIC50 [5] | pIC50 (breast (MCF-7)) | pIC50 (colon (HT-29)) | pIC50 (melanoma (UACC-62)) | IC100 (concentration that promotes total growth inhibition) (glioma (U251); glioma (U251), cytostatic activity) | IC100 (concentration that promotes total growth inhibition) (prostate (PC-3) [3]; prostate (PC-3), cytostatic activity) | IC100 (concentration that promotes total growth inhibition) (ovarian (OVCAR-03) [4]; ovarian (OVCAR-03), cytostatic activity) | IC100 (concentration that promotes total growth inhibition) (melanoma (UACC-62); melanoma (UACC-62), cytostatic activity)
1 | O=C(NN=Cc1ccccc1Cl)c1cc2c([nH]c3ccccc32)c(-c2ccc(O)cc2)n1 [N'-(2-chlorobenzylidene)-1-(4-hydroxyphenyl)-β-carboline-3-carbohydrazide] | 5.78 | 5.74 | – | – | – | – | – | – | – | – | – | – | –
2 | COc1ccc(-c2nc(-c3nnc(SC)o3)cc3c2[nH]c2ccccc23)cc1 [1-(4-methoxyphenyl)-3-(2-methylthio-1,3,4-oxadiazol-5-yl) β-carboline] | 5.67 | – | – | – | – | – | – | – | – | – | – | – | –
3 | COc1ccc(-c2nc(C3=NC(=Cc4cccc([N+](=O)[O-])c4)C(=O)O3)cc3c2[nH]c2ccccc23)cc1 [Compound 10, 2-[1-(4-Methoxyphenyl)-9H-β-carbolin-3-yl]-4-(3-nitrobenzylidene)-4H-oxazol-5-one] | – | – | 6.46 | 5.28 | 5.66 | < 4.00 | 4.32 | < 4.00 | 4.80 | – | – | – | –
4 | COc1ccc(-c2nc(C3=NC(=Cc4ccccc4)C(=O)O3)cc3c2[nH]c2ccccc23)cc1 [Compound 11, 2-[1-(4-Methoxyphenyl)-9H-β-carbolin-3-yl]-4-benzylidene-4H-oxazol-5-one] | – | – | 6.32 | 5.82 | 5.97 | 4.20 | 4.63 | 4.17 | 5.00 | 15.50 µM | 64.17 µM | 56.83 µM | 112.42 µM
5 | COc1cccc2c1C(=O)c1c(O)c3c(c(O)c1C2=O)C[C@@](O)(C(=O)CO)C[C@@H]3O[C@H]1C[C@H](N)[C@H](O)[C@H](C)O1 [Doxorubicin, reference compound] | – | – | 7.52 | 7.30 | 6.38 | 6.30 | 7.22 | 6.74 | 7.40 | – | – | – | –
6 | CC(=O)Oc1ccc(-c2nc(C3=NC(=Cc4cccc([N+](=O)[O-])c4)C(=O)O3)cc3c2[nH]c2ccccc23)cc1 [Compound 9, 2-[1-(4-Acetoxyphenyl)-9H-β-carbolin-3-yl]-4-(3-nitrobenzylidene)-4H-oxazol-5-one] | – | – | 4.10 | < 4.00 | < 4.00 | < 4.00 | < 4.00 | < 4.00 | 5.06 | – | – | – | –
7 | O=C1OC(c2cc3c([nH]c4ccccc43)c(-c3ccccc3)n2)=NC1=Cc1cccc([N+](=O)[O-])c1 [Compound 8, 2-(1-Phenyl-9H-β-carbolin-3-yl)-4-(3-nitrobenzylidene)-4H-oxazol-5-one] | – | – | 4.20 | < 4.00 | 4.20 | < 4.00 | < 4.00 | < 4.00 | 5.12 | – | – | – | –
8 | CN(C)c1ccc(-c2nc(-c3n[nH]c(=S)[nH]3)cc3c2[nH]c2ccccc23)cc1 [1-(4-N,N-dimethylaminophenyl)-3-(5-thioxo-1,2,4-triazol-3-yl)-β-carboline] | 5.96 | 5.86 | – | – | – | – | – | – | – | – | – | – | –
